Values quoted from earlier work as cited in patent US20090214511A1, “DIGESTIBLE COMPOSITIONS OF INULIN FOR MANAGING BLOOD GLUCOSE LEVELS” (priority 2008, published 2009).

SMILES	weight gain and edema versus non-users (randomized controlled trial, users vs non-users)	cumulative incidence of monotherapy failure at 5 years (Type 2 diabetes, initial choice of anti-diabetic drug, 5 years) [%]
CN(CCOc1ccc(CC2SC(=O)NC2=O)cc1)c1ccccn1 (centres unmarked) [rosiglitazone]	more weight gain and edema	–
CN(C)C(=N)N=C(N)N [metformin]	–	21
